In data set [1] the test system is Human peripheral blood mononuclear cells (PBMCs). Type of data set: cell-based. As to conditions: geometric mean, at least 4 replicates, Example 5a. The method, then:
Human peripheral blood mononuclear cells (PBMCs) were used to assess the effects of Kv1.3 blocker reference compounds on T-cell activation as determined by IL-2 (cytokine) release after stimulation with anti-CD3.
Human PBMCs were obtained from Precision for Medicine (Frederick, MD). Cells from 5 donors were used. Plate-bound anti-CD3 was used to stimulate bulk T cells in the PBMC preparations. Briefly, 96-well plates were coated with anti-CD3 antibody for 2 hrs at 37° C., using 50 μL of a 0.5 μg/mL anti-CD3 solution diluted in 1×PBS. Thereafter the plates were washed twice.
Kv1.3 blockers as shown in Table 8a were diluted in medium (RPMI 1640 with Glutamax-I containing 10% v/v Fetal Bovine Serum, 1% v/v penicillin-streptomycin solution) and added in a volume of 100 μL at concentrations ranging from 0.01 pM to 100 nM (tenfold dilutions). […] Finally, 1×10^5 PBMCs were added to each well in a volume of 100 μL, giving a final volume of 200 μL per well. The plates were incubated for 20-24 hours in a 37 °C/5% CO2 incubator. After centrifugation of the plates, 25 μl supernatant was transferred to IL-2 detection plates (MSD Human IL-2 Tissue Culture Kit, cat #K151AHB-2) and IL-2 was measures as described by the manufacturer (Meso Scale Discovery, Rockville, Maryland, USA).
Results are shown in Table 8a as geometric mean of IC50 values obtained from anti-CD3 stimulated human PBMC assays. All values derive from at least 4 replicates.

A further data set addresses T1, human Kv1.2 (Homo sapiens, UniProt P16389).
T1 construct: expressed in transfected cells; host or cells: CHO
As to the kind of experiment: cell-based.

Another data set has as its target T2, human Kv1.1 (Homo sapiens, UniProt Q09470).
T2 construct: expressed in transfected cells; host or cells: CHO
As to the kind of experiment: cell-based.

Another data set addresses T3, human Kv1.6 (Homo sapiens, UniProt P17658).
T3 construct: expressed in transfected cells; host or cells: CHO
As to the kind of experiment: cell-based.

For data set [2], the target named is T4, human Kv1.3 voltage-gated K+ channel (Homo sapiens, UniProt P22001).
T4 construct: host or cells: CHO-DUKX
T4 sequence (P22001 whole entry): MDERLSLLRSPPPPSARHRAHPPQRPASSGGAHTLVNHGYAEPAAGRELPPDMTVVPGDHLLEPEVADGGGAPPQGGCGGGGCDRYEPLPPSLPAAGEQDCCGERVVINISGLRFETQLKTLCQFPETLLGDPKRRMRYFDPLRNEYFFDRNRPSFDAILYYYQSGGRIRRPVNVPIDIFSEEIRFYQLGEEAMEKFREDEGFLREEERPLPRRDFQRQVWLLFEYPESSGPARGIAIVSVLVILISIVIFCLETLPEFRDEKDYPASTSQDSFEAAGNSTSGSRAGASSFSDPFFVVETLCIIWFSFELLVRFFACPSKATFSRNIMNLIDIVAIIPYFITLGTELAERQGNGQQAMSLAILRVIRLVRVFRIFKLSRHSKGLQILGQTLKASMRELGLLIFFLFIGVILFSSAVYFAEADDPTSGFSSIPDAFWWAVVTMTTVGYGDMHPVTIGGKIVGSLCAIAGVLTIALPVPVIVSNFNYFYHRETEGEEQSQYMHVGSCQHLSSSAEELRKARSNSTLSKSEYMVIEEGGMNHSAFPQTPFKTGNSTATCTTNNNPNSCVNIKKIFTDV
As to the kind of experiment: Kv1.3 blocker activity in FLIPR thallium assay. The format is cell-based. The method, then: A human Kv1.3 voltage-gated K+ channel cell line was purchased from Perkin Elmer (#TDS-AX-010-C-1). The cell line is based on CHO-DUKX cells stably transfected with the human Kv1.3 voltage-gated K+ channel.
The cell line was grown in MEMα with nucleotides, GlutaMAX (Gibco #32571028), 10% Foetal Bovine Serum (FBS), 0.4 mg/ml Geneticin, 100 units/ml Penicillin, and 100 μg/ml Streptomycin and seeded at 10.000 cells/well in black poly-D-lysine-coated 96 well plates.
The FluxOR™ Potassium Ion Channel Assay (Invitrogen #F10016) was used to quantitate flux of thallium ions into the cells as a response to Kv1.3 activation with a stimulus buffer causes depolarization of the cell membrane, thereby generating a fluorescent signal, proportional to channel activity. The assay was performed as described by the assay kit manufacturer including a compound pre-incubation step (30 min, 37° C., 5% CO2) in assay buffer containing 0.02% W/v casein from bovine milk (Sigma #C4765) prior to cell membrane depolarization using a final stimuli buffer composition corresponding to 0.2× FluxOR™ chloride-free buffer, 5 mM K2SO4, 1 mM Tl2SO4. The fluorescence responses were recorded and quantified (maximum response at 50 s, 37° C.) using the FLIPR® Tetra High Throughput Screening System (Molecular Devices, Inc.).
IC50 can be regarded as a measure of potency of inhibition for the respective compound. The IC50 value is a measure of the concentration of an inhibitor required to achieve half of that compound's maximal inhibition of ion channel activity in a given assay.

Data set [3] in a line: Pharmacokinetic characterisation after single s.c. injection in Sprague Dawley rats. The note with it: male, rat, plasma, sc, 100 nmol/kg. As for the experimental part: Sprague Dawley (males with a body weight of approximately 250-350 g) were given a single subcutaneous (s.c.) injection of each peptide to be tested.
Following s.c. administration of the selected compounds (dose 100 nmol/kg, dosing volume either 2 mL/kg), blood samples were drawn at 5 min, 15 min, 30 min, 60 min, 2 h, 3 h, 4 h, 6 h, 8 h post-dose. At each sampling time point, samples from the rats were drawn by sublingual bleeding. After last sampling the rats were sacrificed by O2/CO2 anaesthesia. The dosing vehicle was 10 mM phosphate, 0.8% NaCl, 0.05% Polysorbate 20 (pH 6.0).
Plasma samples were analyzed after solid phase extraction (SPE) by liquid chromatography mass spectrometry (LC-MS/MS). Mean plasma concentrations were used for calculation of the pharmacokinetic parameters using the non-compartmental approach in Phoenix WinNonlin 6.4 or a later version. Plasma terminal elimination half-life (T½) was determined as In(2)/λz where λz is the magnitude of the slope of the log linear regression of the log concentration versus time profile during the terminal phase. AUCinf is the area under the plasma concentration—time curve extrapolated to infinity (AUCinf=AUClast+Clast/λz, where Clast is the last observed plasma concentration). Cmax is the maximum observed concentration, occurring at Tmax.

The target in another data set is Rat whole blood (Rattus norvegicus, UniProt P15384). The format is cell-based. As to conditions: IL-17A release, thapsigargin, 24 Hr, at least 2 replicates.
Chain of Rat whole blood (P15384 whole entry): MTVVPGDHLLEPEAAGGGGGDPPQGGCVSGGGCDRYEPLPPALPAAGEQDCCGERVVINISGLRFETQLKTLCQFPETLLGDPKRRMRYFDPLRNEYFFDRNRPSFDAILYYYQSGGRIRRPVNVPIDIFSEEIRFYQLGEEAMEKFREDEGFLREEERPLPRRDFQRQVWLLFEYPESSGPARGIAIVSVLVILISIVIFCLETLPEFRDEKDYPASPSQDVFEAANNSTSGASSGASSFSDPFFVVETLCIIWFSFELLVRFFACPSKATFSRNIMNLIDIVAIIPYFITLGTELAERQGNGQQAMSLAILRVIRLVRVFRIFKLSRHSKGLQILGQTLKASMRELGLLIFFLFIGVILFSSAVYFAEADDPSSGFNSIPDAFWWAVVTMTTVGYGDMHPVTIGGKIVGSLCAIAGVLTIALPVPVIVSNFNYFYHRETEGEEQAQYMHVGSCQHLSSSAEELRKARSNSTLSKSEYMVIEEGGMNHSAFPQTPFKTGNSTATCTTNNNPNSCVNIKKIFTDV
In data set [4] the test system is KLH ear inflammation model in rats. Type of data set: in vivo, rat. As to conditions: 100 nmol/kg SC 24 hrs prior to KLH ear challenge; +/− SD.
[5] abbreviates: ratio of patch clamp IC50 values.

pIC50: −log10 of the molar value. Several values for one entry are separate records, joined by “and”; a condition that tells them apart may be missing. Equal values may be shown once. Read-outs that look alike come from different tables or passages of the source. Where a SMILES comes first, the peptide text is derived from it. Bridges are numbered along the chain shown (N, C = ends). [ ]: non-standard residue; d: D form. Nle = CCCC[C@H](N)C(=O)O Where only a bound is given, the exact number is not on record here.

T3 sequence (P17658 whole entry): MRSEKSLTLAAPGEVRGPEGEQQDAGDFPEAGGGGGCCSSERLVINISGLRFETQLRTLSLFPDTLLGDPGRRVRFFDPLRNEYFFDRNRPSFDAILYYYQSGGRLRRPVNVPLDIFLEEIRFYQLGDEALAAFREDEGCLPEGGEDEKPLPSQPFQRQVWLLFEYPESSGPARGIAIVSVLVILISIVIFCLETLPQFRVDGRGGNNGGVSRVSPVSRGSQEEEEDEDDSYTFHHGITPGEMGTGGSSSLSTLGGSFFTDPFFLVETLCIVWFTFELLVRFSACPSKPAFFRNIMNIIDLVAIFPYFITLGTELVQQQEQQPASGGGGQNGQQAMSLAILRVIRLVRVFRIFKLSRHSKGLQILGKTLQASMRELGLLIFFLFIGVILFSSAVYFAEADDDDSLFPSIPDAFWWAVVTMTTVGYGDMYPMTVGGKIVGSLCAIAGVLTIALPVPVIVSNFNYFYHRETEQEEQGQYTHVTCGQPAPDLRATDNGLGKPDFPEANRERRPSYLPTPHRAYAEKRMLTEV
T2 sequence (Q09470 whole entry): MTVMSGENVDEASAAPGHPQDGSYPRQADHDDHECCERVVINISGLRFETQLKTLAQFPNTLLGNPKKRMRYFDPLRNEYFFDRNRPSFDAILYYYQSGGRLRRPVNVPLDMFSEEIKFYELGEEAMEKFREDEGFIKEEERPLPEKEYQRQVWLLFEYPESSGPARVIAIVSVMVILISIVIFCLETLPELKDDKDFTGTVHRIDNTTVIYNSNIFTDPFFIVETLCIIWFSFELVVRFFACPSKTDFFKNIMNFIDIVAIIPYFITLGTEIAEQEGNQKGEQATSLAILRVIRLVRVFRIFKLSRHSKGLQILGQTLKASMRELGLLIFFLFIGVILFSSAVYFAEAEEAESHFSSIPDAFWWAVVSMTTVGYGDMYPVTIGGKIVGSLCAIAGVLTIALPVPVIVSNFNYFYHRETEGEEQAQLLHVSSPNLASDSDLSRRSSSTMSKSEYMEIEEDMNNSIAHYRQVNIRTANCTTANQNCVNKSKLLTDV
T1 sequence (P16389 whole entry): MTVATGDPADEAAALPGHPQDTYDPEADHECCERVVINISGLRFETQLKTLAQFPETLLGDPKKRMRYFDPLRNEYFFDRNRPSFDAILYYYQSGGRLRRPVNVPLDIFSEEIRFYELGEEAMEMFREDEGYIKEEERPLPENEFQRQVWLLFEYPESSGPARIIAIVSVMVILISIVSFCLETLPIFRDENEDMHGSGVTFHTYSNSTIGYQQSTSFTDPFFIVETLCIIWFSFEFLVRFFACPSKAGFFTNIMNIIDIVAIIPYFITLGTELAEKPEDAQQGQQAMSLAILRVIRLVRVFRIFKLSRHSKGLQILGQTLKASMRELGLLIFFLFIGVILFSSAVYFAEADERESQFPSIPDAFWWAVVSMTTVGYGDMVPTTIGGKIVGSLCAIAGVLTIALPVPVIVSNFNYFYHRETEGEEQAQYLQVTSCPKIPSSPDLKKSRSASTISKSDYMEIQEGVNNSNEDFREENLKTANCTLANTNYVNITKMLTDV

Turning to `CC[C@H](C)[C@H](N)C(=O)N[C@@H](CC(N)=O)C(=O)N[C@H](C(=O)N[C@@H](CCCCN)C(=O)N[C@H]1CSSC[C@@H]2NC(=O)[C@H](CCCCN)NC(=O)CNC(=O)[C@H](Cc3ccccc3)NC(=O)[C@H](CCCNC(=N)N)NC(=O)[C@H](CCSC)NC(=O)CNC(=O)[C@H](C)NC(=O)[C@H](CC(=O)O)NC(=O)[C@H](CCCCN)NC(=O)[C@@H]3CSSC[C@@H](C(=O)N[C@@H](Cc4ccc(O)cc4)C(=O)N[C@@H](CO)C(=O)O)NC(=O)[C@H](CCCNC(=N)N)NC(=O)[C@H](CSSC[C@H](NC(=O)[C@H](CCC(N)=O)NC(=O)[C@H](CCC(N)=O)NC(=O)[C@@H]4CCCN4C(=O)[C@H](CC(C)C)NC(=O)[C@H](CO)NC1=O)C(=O)N[C@@H]([C@@H](C)CC)C(=O)N[C@@H](CCCCN)C(=O)N1CCC[C@H]1C(=O)N3)NC(=O)[C@H](CCCCN)NC(=O)[C@H](CCCCN)NC(=O)[C@H](CC(N)=O)NC(=O)[C@H](CCSC)NC2=O)C(C)C` [Moka1], in data set [1], the “anti-CD3 PBMC/IL-2 IC50” value is “less potent in inhibiting IL-2 secretion”. Moreover, the “Selectivity ratio Kv1.2/Kv1.3” value on human Kv1.2 is 31. Further, on human Kv1.1, the “Selectivity ratio Kv1.1/Kv1.3” value is listed as >300. Moreover, the “Selectivity ratio Kv1.6/Kv1.3” value on human Kv1.6 was >300.
With `CCCC[C@H](NC(=O)[C@@H]1CCCN1)C(=O)N[C@@H](CCC(=O)O)C(=O)N[C@@H](CCCC)C(=O)N[C@@H](CCCNC(=N)N)C(=O)N[C@H]1CSSC[C@@H]2NC(=O)[C@H](CCCCN)NC(=O)CNC(=O)[C@H](Cc3ccccc3)NC(=O)[C@H]([C@@H](C)CC)NC(=O)[C@H](CO)NC(=O)CNC(=O)[C@H]([C@@H](C)CC)NC(=O)[C@H](C)NC(=O)[C@H](C)NC(=O)[C@H](CC(C)C)NC(=O)[C@@H]3CSSC[C@@H](C(=O)N[C@@H](Cc4ccc(O)cc4)C(=O)N4CCC[C@H]4C(=O)N[C@@H](CCCNC(=N)N)C(=O)O)NC(=O)[C@H](CCCCN)NC(=O)[C@H](CSSC[C@H](NC(=O)[C@H](CCC(=O)O)NC(=O)[C@H](C(C)C)NC(=O)[C@H](CO)NC(=O)[C@H](C)NC(=O)[C@H](Cc4c[nH]cn4)NC1=O)C(=O)N[C@@H](CCCCN)C(=O)N[C@@H](CCC(N)=O)C(=O)N[C@@H](CCCCN)C(=O)N3)NC(=O)[C@H](CCCCN)NC(=O)[C@H](CCCCN)NC(=O)[C@H](CC(N)=O)NC(=O)[C@H](CCCC)NC2=O` [compound 4] (H-P[Nle]E[Nle]RCHASVECKQKCLAAIGSIFGKC[Nle]NKKCKCYPR-OH; disulfide 6-27, 12-32, 16-34), in data set [2], the pIC50 was 9.82. Besides, in data set [3], the area under the curve AUC(0-inf) turned out to be 0.138 µM·h, the concentration peaked (Cmax) at 91.8 nM and the half-life was 2.7 h.
As for `CCCC[C@H](NC(=O)[C@@H]1CCCN1)C(=O)N[C@@H](CCC(=O)O)C(=O)N[C@@H](CCCC)C(=O)N[C@@H](CCCNC(=N)N)C(=O)N[C@H]1CSSC[C@@H]2NC(=O)[C@H](CCCCN)NC(=O)CNC(=O)[C@H](Cc3ccccc3)NC(=O)[C@H]([C@@H](C)CC)NC(=O)[C@H](CO)NC(=O)CNC(=O)[C@H]([C@@H](C)CC)NC(=O)[C@H](C)NC(=O)[C@H](C)NC(=O)[C@H](CC(C)C)NC(=O)[C@@H]3CSSC[C@@H](C(=O)N[C@@H](Cc4ccc(O)cc4)C(=O)N4CCC[C@H]4C(=O)N[C@@H](CCCNC(=N)N)C(=O)O)NC(=O)[C@H](CCCCN)NC(=O)[C@H](CSSC[C@H](NC(=O)[C@H](CCC(=O)O)NC(=O)[C@H](C(C)C)NC(=O)[C@H](CO)NC(=O)[C@H](C)NC(=O)[C@H](CO)NC1=O)C(=O)N[C@@H](CCCCN)C(=O)N[C@@H](CCC(N)=O)C(=O)N[C@@H](CCCCN)C(=O)N3)NC(=O)[C@H](CCCCN)NC(=O)[C@H](CCCCN)NC(=O)[C@H](CC(N)=O)NC(=O)[C@H](CCCC)NC2=O` [compound 14] (H-P[Nle]E[Nle]RCSASVECKQKCLAAIGSIFGKC[Nle]NKKCKCYPR-OH; disulfide 6-27, 12-32, 16-34), the “Selectivity ratio Kv1.2/Kv1.3” value on human Kv1.2 (setting [5]) was found to be 3384. At Rat whole blood, this molecule gave a pIC50 of 9.37. In data set [3], this molecule showed an AUC(0-inf) of 0.183 µM·h, a Cmax of 103 nM and a half-life of 1 h. The “% inhibition of ear thickness (AUC of Δ ear thickness 0-48 hours)” value in data set [4] was 37.7% and 42.5%. The “Selectivity ratio Kv1.1/Kv1.3” value at human Kv1.1 (setting [5]) is >9100. Besides, the “Selectivity ratio Kv1.6/Kv1.3” value on human Kv1.6 (setting [5]) was >9100.
Regarding `CCCC[C@@H]1NC(=O)[C@@H]2CSSC[C@H](NC(=O)[C@H](CCCNC(=N)N)NC(=O)[C@H](CCSC)NC(=O)[C@H](CC(=O)O)NC(=O)[C@H](CCSC)NC(=O)[C@@H](N)CC(N)=O)C(=O)N[C@@H](CO)C(=O)N[C@@H](C)C(=O)N[C@@H](CO)C(=O)N[C@@H](C(C)C)C(=O)N[C@@H](CCC(=O)O)C(=O)N[C@H]3CSSC[C@H](NC(=O)[C@H](CCCCN)NC(=O)[C@H](CCCCN)NC(=O)[C@H](CC(N)=O)NC1=O)C(=O)N[C@@H](CCCCN)C(=O)N[C@H](C(=O)N[C@@H](Cc1ccc(O)cc1)C(=O)N1CCC[C@H]1C(=O)N[C@@H](CCCNC(=N)N)C(N)=O)CSSC[C@H](NC(=O)[C@H](CCCCN)NC(=O)[C@H](CCC(N)=O)NC(=O)[C@H](CCCCN)NC3=O)C(=O)N[C@@H](CC(C)C)C(=O)N[C@@H](CCCCN)C(=O)N[C@@H](C)C(=O)N[C@@H]([C@@H](C)CC)C(=O)NCC(=O)N[C@@H](CO)C(=O)N[C@@H]([C@@H](C)CC)C(=O)N[C@@H](Cc1ccccc1)C(=O)NCC(=O)N[C@@H](CCCCN)C(=O)N2` [compound 21] (H-NMDMRCSASVECKQKCLKAIGSIFGKC[Nle]NKKCKCYPR-NH2; disulfide 6-27, 12-32, 16-34), the pIC50 in data set [1] (read-out: anti-CD3 PBMC/IL-2 IC50) was 10.30. Further, at human Kv1.2 (setting [5]), the “Selectivity ratio Kv1.2/Kv1.3” value amounted to 561. Further, the “Selectivity ratio Kv1.1/Kv1.3” value on human Kv1.1 (setting [5]) is on record as >12600. Further, on human Kv1.6 (setting [5]), the “Selectivity ratio Kv1.6/Kv1.3” value is recorded as 10360.

A word on the AUC(0-inf): it is total exposure, with the tail of the curve extrapolated. In general, Cmax refers to the peak of the concentration-time curve. What is called half-life is the time needed for the level to fall by half in the phase considered.

(Values after patent US20240182531A1, “KV1.3 Blockers” (priority 2021, published 2024).)
